Data reported in article PMC10688702, “The indole motif is essential for the antitrypanosomal activity of N^5-substituted paullones” (PLOS ONE, 2023).
Where two headings read alike, the source gives them in different places.

Legend:
[1] = tested on: murine macrophages J774.A1; experiment: Cytotoxicity assays on murine macrophages (WST-1); assay type: cell-based; conditions: error 1 SD; for Macrophage toxicity [% at 30 μM]: % cell death at 30 μM
Protocol: Cytotoxicity assays on murine macrophages. Murine macrophages from the cell line J774.A1 (ATCC® TIB-67TM) were cultivated under a humidified 5% CO2/95% air atmosphere at 37°C in Dulbecco’s modified Eagle’s medium (DMEM) supplemented with 10% (v/v) FBS, 10 U/mL penicillin and 10 μg/mL streptomycin. The experimental protocol for the determination of EC50 values was identical as described by Demoro et al. 2012 [71], with the following change: 200 μL/well of a cell suspension at 6 × 10^4 cells per mL was added in a 96-well culture plate and washed with 150 μL of DMEM. The cytotoxicity of the compounds was evaluated in triplicate using the WST-1 reagent (Roche). The control treatment included cells cultured in the presence of DMSO 1% (v/v). Absorbance at 450 nm (Ai 450 nm), corresponding to the formazan dye produced by metabolically active cells, was measured with an EL 800-microplate reader. The corrected absorbance values at 450 nm (Ai c 450 nm) were obtained by subtracting the corresponding absorbance value at 630 nm (Ai 630 nm) and the blank average (Ablank 450 nm): Aic450nm=Ai450nm-Ai630nm-Ablank450nm
Cell viability (%), with the number of viable cells proportional to the absorbance, was calculated as follows: cellviability%=Aic450nm/Anegativecontrolc450nm*100%
Ai c 450 nm refers to an absorbance obtained from cells treated with compound I at a specific concentration (i) and Anegative control c 450 nm refers to an absorbance obtained from cells in the DMSO-treated control (negative control). The errors were calculated using error propagations and are expressed as one SD, estimated as σ^n−1.

[2] = tested on: L. infantum amastigotes (intracellular, in J774.A1 macrophages); experiment: Viability assay for L. infantum amastigotes; assay type: cell-based; conditions: Leishmania infantum, J774.A1, 24 h, read-out: L. infantum amastigote viability [% at 20 μM]
Protocol: Viability assay for L. infantum amastigotes. L. infantum promastigotes from the reference strain MHOM/MA/67/ITMAP263, stably transfected with a vector encoding a red-shifted luciferase gene (RE9HLUC; Branchini et al.; Benítez et al.) were grown in fresh complete RPMI medium (RPMI basic medium containing 25 mM HEPES, 10% v/v iFBS, 100 U/mL penicillin, 100 μg/mL streptomycin and 15 μg/mL hygromycin B) at 28°C in sealed culture flasks. Metacyclic promastigotes were obtained by a negative selection procedure using peanut agglutinin and used to infect murine macrophages (cell line J774.A1) at a 1:10 ratio for macrophages (5×10^6 cells): parasites (5×10^7 cells). 200 μL of this suspension was added per well to a 96-well culture microplate, which was then incubated at 37°C for 24 h in a 5% CO2/95% air atmosphere incubator. […] The culture microplate was incubated in the CO2 incubator for additional 24 h. Next, the supernatant was removed and the microplate wells were washed with pre-warmed PBS (200 μL). […] All conditions were tested in triplicates and the percentage amastigote viability was calculated as described for infective T. b. brucei, with errors expressed as one SD, estimated as σ^n-1.
A macrophage cell density correction factor based on the incorporation of propidium iodide was calculated and applied to normalise amastigote viability related to host cell density in the well. For a detailed explanation of the protocol, see Benítez et al..

[3] = target: trypanothione synthetase of L. infantum (LiTryS) (Leishmania infantum, UniProt A4I2Z3); experiment: TryS activity screening assay on recombinant LiTryS; assay type: biochemical; conditions: read-out: LiTryS activity [% at 30 μM]
Protocol: (§1) TryS from different trypanosomatids was produced in recombinant form with an N-terminal His-tag. The constructs pET-15b TbTryS and pET-28c(+)LiTryS were used to express TryS of T. b. brucei 427 (MITat1.4, GenBank accession protein id CAC87573.1), and L. infantum JPCM5 (GenBank accession protein id CAM69145.1). E. coli strain BL21 (DE3) served as the expression host. For TbTryS, the cells were cultured in a medium based in Terrific Broth and induction with isopropyl 1-thio-β-D-galactopyranoside (IPTG), while for LiTryS, the cells were cultured in ZYM-5052 auto-induction medium. For a detailed description of the expression, see Benítez et al.. The purification was performed by immobilised metal affinity chromatography in a HisTrap Fast Flow column (GE Healthcare) followed by size exclusion chromatography. […] The fractions containing recombinant TryS with ≥95% purity were pooled and concentrated to >10 mg protein/mL using a 10 kDa cut-off Amicon filter (Millipore, Billerica, CA). Glycerol was added at a final concentration of 40% (v/v). The samples were stored at -80°C. Enzyme purity and activity were assessed by SDS-PAGE (12%) under reducing conditions and by the end-point TryS assay (see TryS activity screening assay), respectively. Protein concentration was determined using the bicinchoninic acid assay with bovine serum albumin as standard. The protocols yielded 25–30 mg TbTryS or LiTryS per litre of culture medium and homogeneous specific activity.
(§2) For all TryS, ATP was used at 150 μM because of a high background signal at higher concentrations and Spd fixed at 2 mM, in agreement with the intracellular levels calculated from data reported in the literature for trypanosomatids. GSH was adjusted to 0.05 and 0.25 mM for TbTryS and LiTryS, respectively, to avoid substrate inhibition or to approach physiological concentrations. […] Microtiter plate wells were loaded with 5 μL of the test compound, DMSO (reaction control) or a TryS specific inhibitor (inhibition control) and 40 μL of MM solution. The reactions were then started by adding 5 μL of TryS (2 and 3*10^−5 μmol*min^-1*mL^-1 for LiTryS and TbTryS, respectively) and stopped after 15 min with 200 μL BIOMOL® GREEN reagent (Enzo Life Sciences). The compounds used as inhibition control were added at concentrations that inhibited 50% TryS activity: 30 μM and 150 nM MOL2008 for TbTryS and LiTryS, respectively. Blanks were prepared for each condition by adding 5 μL of screening reaction buffer instead of the enzyme. The TryS activity is calculated as follows: TrySactivity%=A650nmCi-A650nmCiB/A650nmE-A650nmEB*100%
(§3) A650 nm Ci is the mean absorbance at 650 nm for the reaction test with compound I (Ci), A650 nm CiB is the mean absorbance at 650 nm for the blank control with compound I (CiB), A650 nm E is the mean absorbance at 650 nm for the reaction control with DMSO (E) and A650 nm EB is the mean absorbance at 650 nm for the blank control with DMSO (EB). The errors were expressed as 2 standard deviations (SD), SD estimated as σ^n−1.

[4] = tested on: bloodstream form of T. b. brucei strain 427; experiment: Viability assay for T. b. brucei (whole parasite, bioluminescence); assay type: cell-based; conditions: 24 h; for T. b. brucei (BS) proliferation [% at 10 μM]: 10 μM compound; for EC50: read-out: T. b. brucei (BS) [EC50
Protocol: Viability assay for T. b. brucei. The bloodstream form of the monomorphic T. b. brucei strain 427, cell line 5141313, constitutively and stably expressing an ectopic copy of the Photinus pyralis red-shifted luciferase, was cultured in vitro with HMI-9 medium, supplemented with 10% fetal bovine serum, 10 U/mL penicillin (Gibco), 10 μg/mL streptomycin (Gibco), 0.2 μg/mL bleomycin (Jena Bioscience), 4 μg/mL G418 disulfate salt (Sigma-Aldrich) and 0.2 μg/mL puromycin (Invitrogen), inside a humidified incubator (Thermo Fisher Scientific) with controlled temperature (37°C) and CO2 (5%) in a 25 or 75 cm^2 vented-cap culture-flask. The anti-trypanosomal activity of compounds was evaluated in a 96-well culture plate containing 2.2 μL/well DMSO (negative control) or compounds dissolved in DMSO (1% final concentration), and 220 μL/well of a suspension of 1 × 10^5 parasites/mL. The plates were incubated at 37°C and 5% CO2 for 24 h. Next, each well was transferred to a 96-well black plate, and 20 μL of a solution containing d-luciferin (1.5 mg/mL in PBS glucose 1% w/v) and Triton X-100 (0.05% v/v) was added. Bioluminescence signal was measured in a LUMIstar OPTIMA Microplate luminometer using the following settings: 10 s shaking, 5 s/well acquisition, 0.2 s measurement delay, maximum gain, and 37°C. For the bioluminescence assay, parasite viability was calculated according to the following formula: parasiteviability%=BLcpd-BLblank/BLneg-BLblank*100%
BL refers to the mean of bioluminescence signal corresponding to the tested compound (cpd), the blank (blank, complete media containing 1% v/v DMSO), or the negative control (neg, parasites treated with 1% v/v DMSO). EC50 values were determined from concentration-response curves fitted to a four-parameter sigmoid equation using the GraphPad Prism software (version 6.0). All errors are expressed as one SD, estimated as σ^n-1. For a detailed explanation of the protocol, see Dibello et al..

[5] = tested on: trypanothione synthetase of T. b. brucei (TbTryS); experiment: TryS activity screening assay on recombinant TbTryS; assay type: biochemical; conditions: % activity at 30 μM compound, errors 2 SD
Protocol: as §1, §2, §3

trypanothione synthetase of L. infantum (LiTryS), sequence (A4I2Z3 entry or part of it): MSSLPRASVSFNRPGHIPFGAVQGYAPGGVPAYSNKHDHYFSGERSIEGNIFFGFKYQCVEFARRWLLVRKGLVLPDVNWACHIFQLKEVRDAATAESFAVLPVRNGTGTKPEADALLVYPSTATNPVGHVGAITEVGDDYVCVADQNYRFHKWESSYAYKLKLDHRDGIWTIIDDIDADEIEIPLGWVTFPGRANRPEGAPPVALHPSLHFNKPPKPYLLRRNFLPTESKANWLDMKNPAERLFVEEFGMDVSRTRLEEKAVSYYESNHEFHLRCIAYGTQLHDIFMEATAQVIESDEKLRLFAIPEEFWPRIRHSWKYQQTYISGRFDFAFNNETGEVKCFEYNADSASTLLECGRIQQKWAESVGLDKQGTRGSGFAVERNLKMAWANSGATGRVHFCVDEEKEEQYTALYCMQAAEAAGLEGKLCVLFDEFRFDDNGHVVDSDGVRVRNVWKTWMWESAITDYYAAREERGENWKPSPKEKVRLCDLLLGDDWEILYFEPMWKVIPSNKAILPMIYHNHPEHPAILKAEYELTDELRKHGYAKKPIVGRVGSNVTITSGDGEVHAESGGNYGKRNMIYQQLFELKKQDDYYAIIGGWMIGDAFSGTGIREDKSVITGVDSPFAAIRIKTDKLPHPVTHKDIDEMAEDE

| Compound | Macrophage toxicity [% at 30 μM] [1] [%] | viability at 20 µM [2] [%] | activity at 30 µM [3] [%] | T. b. brucei (BS) proliferation [% at 10 μM] [4] [%] | EC50 ([4]; Trypanosoma brucei) [µM] | Macrophage toxicity [% at stated conc.] ([1]; % cell death at 60 μM) [%] | TbTryS activity [% at 30 μM] [5] [%] | EC50 [4] [µM] | Macrophage toxicity [% at stated conc.] ([1]; % cell death at 100 μM) [%] |
| --- | --- | --- | --- | --- | --- | --- | --- | --- | --- |
| CC(C)(C)OC(=O)N1CCN(CCNC(=O)CN2C(=O)Cc3ccccc3-c3ccccc32)CC1 [4b, tert-Butyl 4-{2-[2-(6-oxo-6,7-dihydro-5H-dibenzo[b,d]azepin-5-yl)acetamido]ethyl}piperazine-1-carboxylate] | 40 | 93.9 ± 6.6 | 103 ± 8.6 |  |  |  |  |  |  |
| CN(CCNC(=O)CN1C(=O)Cc2c([nH]c3ccc(I)cc23)-c2ccc(Cl)cc21)C(=O)OC(C)(C)C [10a, tert-Butyl {2-[2-(3-chloro-9-iodo-6-oxo-7,12-dihydrobenzo[2,3]azepino[4,5-b]indol-5(6H)-yl)acetamido]ethyl}(methyl)carbamate] |  |  | 38.3 ± 4.8 | 0.0 ± 1.2 | 5.3 ± 1.3 | 75.9 ± 9.9 | 90.2 ± 13.2 |  |  |
| CN(CCNC(=O)CN1C(=O)Cc2c([nH]c3ccc(Cl)cc23)-c2ccc(Cl)cc21)C(=O)OC(C)(C)C [10b, tert-Butyl {2-[2-(3,9-dichloro-6-oxo-7,12-dihydrobenzo[2,3]azepino[4,5-b]indol-5(6H)-yl)acetamido]ethyl}(methyl)carbamate] |  |  | 35.4 | 0.0 ± 1.4 | 1.9 ± 1.2 | 47.9 ± 4.8 | 94.2 ± 17.1 |  |  |
| CN(CCNC(=O)CN1C(=O)Cc2c([nH]c3ccc(C(F)(F)F)cc23)-c2ccc(Cl)cc21)C(=O)OC(C)(C)C [10c, tert-Butyl {2-[2-(3-chloro-6-oxo-9-trifluoromethyl-7,12-dihydrobenzo[2,3]azepino[4,5-b]indol-5(6H)-yl)acetamido]ethyl}(methyl)carbamate] |  |  | 43.2 ± 9.1 | 0.0 ± 1.0 | 11.6 ± 1.8 |  | 95.2 ± 13.2 | ~12 | 94.9 ± 7.1 |
| CC(C)(C)OC(=O)CN1C(=O)Cc2ccccc2-c2ccccc21 [compound 18, tert-Butyl 2-(6-oxo-6,7-dihydro-5H-dibenzo[b,d]azepin-5-yl)acetate] | 60 |  | 99.4 ± 3 |  |  |  |  |  |  |
